From PMC12528448, “Resistance to CDK7 inhibitors directed by acquired mutation of a conserved residue in cancer cells” (The EMBO Journal, 2025)
Values joined by “and” are separate entries in the source; they are usually repeats but may differ in a detail not shown here. Equal values may be shown once.

Test system: MCF7-CDK4^D99N (CL1) cells
Assay: IncuCyte confluency growth, homozygous CDK4 D99N clone CL1
Assay type: cell-based, human
Description: To determine the IC50 of drug treatments on growth, cells were seeded in 96-well culture plates. Two days after seeding, the cells were treated with increasing concentrations of drugs and incubated for 4 days. Cell number was determined using the SRB assay (Skehan et al, [1990]), and IC50 values were calculated using non-linear regression curve fitting in GraphPad Prism v10. For all other growth experiments, cells were seeded into 96-well plates, and appropriate drugs were added 2 days after seeding. Cells were then incubated in an IncuCyte Zoom live-cell imager, with cell confluency measured every 6 h. Cell doubling times were determined by non-linear curve fitting (exponential growth equation) in GraphPad Prism v10.

[1] = homozygous mutant clone, 1 µM Palbociclib

CC(=O)c1c(C)c2cnc(Nc3ccc(N4CCNCC4)cn3)nc2n(C2CCCC2)c1=O [Palbociclib]
% Confluency (MCF7 CDK4 D99N/D99N CL1, 50nM Palbociclib, 0 Hours): 4.47% and 7.41% and 8.54% | % Confluency (MCF7 CDK4 D99N/D99N CL1, 50nM Palbociclib, 12 Hours): 6.57% and 10.81% and 12.65% | % Confluency (MCF7 CDK4 D99N/D99N CL1, 50nM Palbociclib, 24 Hours): 7.94% and 14.04% and 16.28% | % Confluency (MCF7 CDK4 D99N/D99N CL1, 50nM Palbociclib, 36 Hours): 9.96% and 16.26% and 19.65% | % Confluency (MCF7 CDK4 D99N/D99N CL1, 50nM Palbociclib, 60 Hours): 16.05% and 25.67% and 31.53% | % Confluency (MCF7 CDK4 D99N/D99N CL1, 50nM Palbociclib, 72 Hours): 20.59% and 33.83% and 40.66% | % Confluency (MCF7 CDK4 D99N/D99N CL1, 100nM Palbociclib, 0 Hours): 5.11% and 7.96% and 8.92% | % Confluency (MCF7 CDK4 D99N/D99N CL1, 100nM Palbociclib, 12 Hours): 7.75% and 11.79% and 13.54% | % Confluency (MCF7 CDK4 D99N/D99N CL1, 100nM Palbociclib, 24 Hours): 9.54% and 15.28% and 17.18% | % Confluency (MCF7 CDK4 D99N/D99N CL1, 100nM Palbociclib, 36 Hours): 11.96% and 17.72% and 19.72% | % Confluency (MCF7 CDK4 D99N/D99N CL1, 100nM Palbociclib, 48 Hours): 15.88% and 21.63% and 24.14% | % Confluency (MCF7 CDK4 D99N/D99N CL1, 100nM Palbociclib, 60 Hours): 19.72% and 27.06% and 29.56% | % Confluency (MCF7 CDK4 D99N/D99N CL1, 100nM Palbociclib, 72 Hours): 25.72% and 33.76% and 37.42% | % Confluency (MCF7 CDK4 D99N/D99N CL1, 100nM Palbociclib, 84 Hours): 33.55% and 43.80% and 49.43% | % Confluency (MCF7 CDK4 D99N/D99N CL1, 100nM Palbociclib, 96 Hours): 44.26% and 56.08% and 62.73% | % Confluency (MCF7 CDK4 D99N/D99N CL1, 500nM Palbociclib, 0 Hours): 4.28% and 7.96% and 8.62% | % Confluency (MCF7 CDK4 D99N/D99N CL1, 500nM Palbociclib, 12 Hours): 6.49% and 11.80% and 13.50% | % Confluency (MCF7 CDK4 D99N/D99N CL1, 500nM Palbociclib, 24 Hours): 8.63% and 14.98% and 17.24% | % Confluency (MCF7 CDK4 D99N/D99N CL1, 500nM Palbociclib, 36 Hours): 10.70% and 16.67% and 18.25% | % Confluency (MCF7 CDK4 D99N/D99N CL1, 500nM Palbociclib, 48 Hours): 13.35% and 19.15% and 19.83% | % Confluency (MCF7 CDK4 D99N/D99N CL1, 500nM Palbociclib, 60 Hours): 17.13% and 22.40% and 23.57% | % Confluency (MCF7 CDK4 D99N/D99N CL1, 500nM Palbociclib, 72 Hours): 21.34% and 27.28% and 27.86% | % Confluency (MCF7 CDK4 D99N/D99N CL1, 500nM Palbociclib, 84 Hours): 27.05% and 33.32% and 34.40% | % Confluency (MCF7 CDK4 D99N/D99N CL1, 500nM Palbociclib, 96 Hours): 34.72% and 41.63% and 42.47% | % Confluency (MCF7 CDK4 D99N/D99N CL1, 500nM Palbociclib, […] Hours): 39.86% | % Confluency (MCF7 CDK4 D99N/D99N CL1, 1000nM Palbociclib, 0 Hours): 4.23% and 6.28% and 8.65% | % Confluency (MCF7 CDK4 D99N/D99N CL1, 1000nM Palbociclib, 12 Hours): 6.49% and 9.38% and 13.38% | % Confluency (MCF7 CDK4 D99N/D99N CL1, 1000nM Palbociclib, 24 Hours): 8.61% and 12.05% and 16.81% | % Confluency (MCF7 CDK4 D99N/D99N CL1, 1000nM Palbociclib, 36 Hours): 10.75% and 13.98% and 18.02% | % Confluency (MCF7 CDK4 D99N/D99N CL1, 1000nM Palbociclib, 48 Hours): 13.71% and 15.18% and 19.26% | % Confluency (MCF7 CDK4 D99N/D99N CL1, 1000nM Palbociclib, 60 Hours): 17.11% and 17.23% and 21.83% | % Confluency (MCF7 CDK4 D99N/D99N CL1, 1000nM Palbociclib, 72 Hours): 21.46% and 20.52% and 24.80% | % Confluency (MCF7 CDK4 D99N/D99N CL1, 1000nM Palbociclib, 84 Hours): 26.42% and 23.91% and 29.84% | % Confluency (MCF7 CDK4 D99N/D99N CL1, 1000nM Palbociclib, 96 Hours): 33.28% and 29.04% and 35.27% | Sensitivity of growth (homozygous mutant clone vs MCF7): substantially less sensitive | Doubling time [1]: 54.6 (95% CI = 48.4–62.1) h | Increase of doubling time vs vehicle [1]: twofold
